Assay results from the supplement of paper PMC7840683.
± gives the standard deviation of the averaged measurements.

Test system: HepaRG
Assay: LDH release cytotoxicity, % of total lysis control; higher = more cytotoxic
Conditions: 48 h
Procedure, shortened: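 Single-lot HepaRG cells on collagen I-coated 96-well plates were exposed for 48 h in duplicate, in serum-free induction medium with 0.5% DMSO, to eight-point half-log series (test chemicals top 100 µM). Total lysis wells received 0.1% Triton X, and LDH leakage into 50 µL spent medium was read as resorufin fluorescence (CytoTox-ONE, Tecan Safire). Percent cytotoxicity was normalized to on-plate vehicle and total lysis controls and averaged over the duplicates.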

O=C(O)[C@H](O)[C@@H](O)C(=O)O [L-Tartaric acid]
Conditions	LDH release cytotoxicity [%]
0.03162 µM	-3.55 ± 0.17
0.1 µM	-2.52 ± 1.6
0.3162278 µM	-2.17 ± 1.1
1 µM	-2.97 ± 1.1
3.16228 µM	-2.2 ± 0.7
10 µM	-0.465 ± 0.18
31.6228 µM	1.18 ± 0.94
100 µM	6.93 ± 0.79

C1=CCCC=CCCC=CCC1 [1,5,9-Cyclododecatriene]
Conditions	LDH release cytotoxicity [%]
0.032888 µM	0.325 ± 0.27
0.104 µM	-1.08 ± 0.16
0.328877 µM	-2.13 ± 1.5
1.04 µM	-1.59 ± 0.41
3.28877 µM	-1.09 ± 0.33
10.4 µM	-1.273 ± 0.012
32.8877 µM	-1.4 ± 0.08
104 µM	0.633 ± 0.4

O=C(O)c1cc(Oc2ccc(C(F)(F)F)cc2Cl)ccc1[N+](=O)[O-] [5-(2-Chloro-4-(trifluoromethyl)phenoxy)-2-nitrobenzoic acid]
Conditions	LDH release cytotoxicity [%]
0.03162 µM	-0.08 ± 0.59
0.1 µM	-1.4 ± 0.2
0.3162278 µM	-0.769 ± 0.18
1 µM	-1.39 ± 0.35
3.16228 µM	-0.738 ± 0.35
10 µM	-0.0876 ± 0.044
31.6228 µM	0.334 ± 0.06
100 µM	2.95 ± 0.47

O=c1[nH]c2ccc(S(=O)CCN3CCC(Cc4ccc(F)cc4)CC3)cc2o1 (configuration not stated) [Besonprodil]
Conditions	LDH release cytotoxicity [%]
0.03162 µM	-2.69 ± 1.3
0.1 µM	-1.42 ± 0.9
0.3162278 µM	-1.87 ± 0.18
1 µM	-0.983 ± 0.15
3.16228 µM	-0.767 ± 0.42
10 µM	-1.16 ± 0.83
31.6228 µM	-1.7 ± 0.064
100 µM	2.32 ± 2.9

CC1(C)C(C=C(Cl)Cl)C1C(=O)OC(C#N)c1ccc(F)c(Oc2ccccc2)c1 (configuration not stated) [Cyfluthrin]
Conditions	LDH release cytotoxicity [%]
0.031623 µM	0.499 ± 1.5
0.1 µM	-1.05 ± 0.37
0.316228 µM	-1.18 ± 2.4
1 µM	-1.61 ± 2.3
3.16228 µM	-1.18 ± 0.56
10 µM	-0.972 ± 1.4
31.6228 µM	-0.561 ± 1.3
100 µM	-0.122 ± 0.2

C1N2CN3CN1CN(C2)C3 [Methenamine]
Conditions	LDH release cytotoxicity [%]
0.0322552 µM	-1.06 ± 0.69
0.102 µM	-1.56 ± 0.28
0.322552 µM	-1.99 ± 0.53
1.02 µM	-2.63 ± 0.35
3.2255232 µM	-1.7 ± 0.047
10.2 µM	-1.59 ± 0.085
32.2552 µM	-1.01 ± 0.47
102 µM	0.286 ± 0.11

CC(C)(O)c1coc(S(=O)(=O)NC(=O)Nc2c3c(cc4c2CCC4)CCC3)c1
Conditions	LDH release cytotoxicity [%]
0.03162 µM	-0.467 ± 0.54
0.1 µM	-0.342 ± 0.93
0.3162278 µM	-0.339 ± 0.74
1 µM	0.236 ± 0.21
3.16228 µM	0.788 ± 0.39
10 µM	0.179 ± 0.27
31.6228 µM	0.394 ± 0.043
100 µM	1.465 ± 0.0083

CN(C)C(=O)Nc1ccc(Cl)c(Cl)c1 [Diuron]
Conditions	LDH release cytotoxicity [%]
0.0314647 µM	-0.32 ± 1.2
0.0995 µM	-1.23 ± 1.5
0.3146466 µM	-1.57 ± 0.64
0.995 µM	-0.727 ± 0.72
3.14647 µM	-1.47 ± 0.9
9.95 µM	-1.77 ± 0.071
31.4647 µM	-0.974 ± 0.13
99.5 µM	19 ± 4.1

CC(=O)OCC(COC(C)=O)OC(C)=O [Triacetin]
Conditions	LDH release cytotoxicity [%]
0.03162 µM	-0.962 ± 0.12
0.1 µM	-3.22 ± 0.49
0.3162278 µM	-1.81 ± 0.69
1 µM	-1.13 ± 0.65
3.16228 µM	-1.14 ± 0.036
10 µM	-0.506 ± 0.1
31.6228 µM	0.136 ± 0.76
100 µM	0.128 ± 0.77
